The values that follow come from PubChem BioAssay (NCI).

Some test systems named below: CCRF-CEM leukemia; EKVX NSCLC; HCC-2998 colon; MCF7 breast; NCI-H226 lung; NCI-H460 lung; OVCAR-4 ovarian; TK-10 renal; UO-31 renal; A498 renal.
What all share (assay): NCI anticancer screen, dose series, 48 h

Several values for one entry are separate records, joined by “and”; a condition that tells them apart may be missing. Equal values may be shown once.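 1) Cells in 96-well plates. 2) Compound, 48 h, 5 concentrations. 3) Linear interpolation between surrounding doses. 4) Unreached endpoint = highest concentration. GI50 = concentration required for 50% inhibition of growth. TGI is the concentration that stops growth completely.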

As to `O=C1NC(=O)C(CC2CCCCCCCCCCC2=O)C(=O)N1` (centres undefined), the TGI in the assay with CCRF-CEM leukemia, in the assay with EKVX NSCLC, with HCC-2998 colon, with MCF7 breast, with NCI-H226 lung and in the assay with NCI-H460 lung was more than 100 µM in each case. The TGI with OVCAR-4 ovarian, in the assay with TK-10 renal and in the assay with UO-31 renal was more than 100 µM in each case.
With `CN(C)CCN1C(=O)c2ccc3c4c(ccc(c24)C1=O)C(=O)N(CCN=C=S)C3=O`, the GI50 is 0.0529 µM in the assay on A498 renal; 0.396 µM in the assay with EKVX NSCLC; 0.172 µM in the assay on HCC-2998 colon; 0.0257 µM with MCF7 breast; 0.1 µM with NCI-H226 lung; 0.13 µM with OVCAR-4 ovarian. In addition, the figures for the GI50 in the assay with TK-10 renal and with UO-31 renal were 0.0218 µM and 0.0281 µM, respectively. The TGI in the assay on A498 renal was determined as 0.207 µM; in the assay with EKVX NSCLC, 1.5 µM; with HCC-2998 colon, 0.381 µM; in the assay on MCF7 breast, 0.129 µM; in the assay with NCI-H226 lung it was 0.325 µM; with OVCAR-4 ovarian it was 0.365 µM. Moreover, the TGI in the assay with TK-10 renal turned out to be 0.109 µM; with UO-31 renal it was 0.157 µM.
Regarding `Nc1ccc2cc3ccc(N)cc3nc2c1`, the GI50 with CCRF-CEM leukemia was 1.92 µM; in the assay with EKVX NSCLC, 0.64 µM; in the assay on MCF7 breast, 0.52 µM; in the assay with OVCAR-4 ovarian, 1.21 µM [middle of 4 runs]; in the assay on TK-10 renal it was 0.513 µM; in the assay with UO-31 renal it was 0.412 µM. The TGI is 10.6 µM and 6.53 µM and 7.66 µM in the assay with EKVX NSCLC; 4.87 µM and 2.56 µM and 2.47 µM in the assay with HCC-2998 colon; 7.19 µM and 22.6 µM and 14.5 µM with MCF7 breast; 4.3 µM [middle of 4 runs] in the assay on NCI-H226 lung; 4.23 µM [middle of 4 runs] in the assay on OVCAR-4 ovarian; 5.13 µM [middle of 4 runs] in the assay with UO-31 renal.
Take `COc1cc(/C=C/c2ccc(OC)c(OC)c2)cc(OC)c1`: the TGI is more than 100 µM in the assay on CCRF-CEM leukemia; more than 100 µM with EKVX NSCLC; more than 100 µM in the assay on MCF7 breast; 74.4 µM in the assay with NCI-H226 lung; 73.6 µM in the assay on NCI-H460 lung; more than 100 µM in the assay on OVCAR-4 ovarian. Also, the values for the TGI with TK-10 renal and with UO-31 renal were more than 100 µM and 83.1 µM, respectively.
As to `CCCCCCCCCCCCCCCCCCOc1ccccc1CC(=O)OCC[N+]1(C)CCCC1`, the GI50 in the assay on A498 renal is 2.18 µM; with EKVX NSCLC it was 3.38 µM; with MCF7 breast, 2.11 µM; with NCI-H226 lung it was 2.2 µM; in the assay on NCI-H460 lung, 2.15 µM; with OVCAR-4 ovarian, 2.94 µM. Also, the GI50 is 1.52 µM in the assay with TK-10 renal and 3.27 µM with UO-31 renal. For the same molecule, the TGI was found to be 8.82 µM with A498 renal; 16.4 µM in the assay with EKVX NSCLC; 4.76 µM with MCF7 breast; 6.09 µM in the assay on NCI-H226 lung; 4.65 µM with NCI-H460 lung; 12.1 µM in the assay on OVCAR-4 ovarian. The TGI worked out at 3.08 µM with TK-10 renal and 15 µM with UO-31 renal.
On to `Cn1c2ccccc2c(=O)c2ccc(Cl)cc21`, for which the TGI in the assay with CCRF-CEM leukemia, in the assay with EKVX NSCLC, in the assay with HCC-2998 colon, with MCF7 breast, with OVCAR-4 ovarian and in the assay on TK-10 renal was more than 10 µM throughout.
For the molecule `COc1cc(NC(C)CCCN)c2nccc(C)c2c1` (centres undefined), the TGI was more than 100 µM in the assay with EKVX NSCLC; 38.7 µM in the assay on HCC-2998 colon; 33.2 µM in the assay on MCF7 breast; 54.7 µM in the assay on NCI-H460 lung; 59.9 µM with OVCAR-4 ovarian; 63.5 µM with TK-10 renal. This molecule had a TGI with UO-31 renal of 53.8 µM.
Consider `COc1ccc(C(=O)COc2ccc(/C=C3\COc4ccc(OC)cc4C3=O)cc2)cc1`, for which the GI50 is 2.86 µM in the assay with CCRF-CEM leukemia; 41.2 µM in the assay with EKVX NSCLC; 3.1 µM in the assay with MCF7 breast; 54.7 µM with NCI-H226 lung; 57.5 µM with NCI-H460 lung; 17.4 µM in the assay on OVCAR-4 ovarian. Moreover, the GI50 is 19.1 µM in the assay with TK-10 renal and 18.4 µM in the assay on UO-31 renal. The TGI with CCRF-CEM leukemia is 10.2 µM; in the assay on EKVX NSCLC it was more than 100 µM; in the assay with MCF7 breast it was 18.6 µM; with NCI-H226 lung it was more than 100 µM; with NCI-H460 lung, more than 100 µM; in the assay on OVCAR-4 ovarian it was 69.2 µM. Further, the TGI with TK-10 renal was found to be 48.7 µM; in the assay on UO-31 renal it was 61.5 µM.
Turning to `Clc1ccc(C=Nc2ccc3c(c2)Cc2ccccc2-3)c(Cl)c1`, the TGI in the assay with A498 renal, in the assay on CCRF-CEM leukemia, with EKVX NSCLC, in the assay on MCF7 breast, in the assay on NCI-H226 lung and with NCI-H460 lung was more than 100 µM in each case. The TGI in the assay with OVCAR-4 ovarian, in the assay with TK-10 renal and in the assay on UO-31 renal was more than 100 µM in each case.
On to `O=c1cc(NC2CCN(CCCc3ccccc3)CC2)c2cc(Cl)ccc2o1`, for which the GI50 with A498 renal was 0.0423 µM; in the assay with CCRF-CEM leukemia, 18.2 µM; in the assay on HCC-2998 colon, 13 µM; with MCF7 breast, 9.42 µM; in the assay with NCI-H226 lung, 15.6 µM; in the assay with NCI-H460 lung, 15.7 µM. Besides, the GI50 in the assay on OVCAR-4 ovarian is 13.2 µM; in the assay on TK-10 renal it was 13.4 µM; in the assay on UO-31 renal it was 4.39 µM. Besides, the TGI in the assay with A498 renal stood at 6.92 µM; in the assay on CCRF-CEM leukemia, 79.3 µM; in the assay on HCC-2998 colon, 27.3 µM; in the assay with MCF7 breast it was 26.9 µM; in the assay with NCI-H226 lung, 39.6 µM; in the assay with NCI-H460 lung, 29.6 µM. In addition, the values for the TGI in the assay with OVCAR-4 ovarian, in the assay on TK-10 renal and in the assay on UO-31 renal were 35.6 µM, 26.6 µM and 17.8 µM, respectively.
On to `O=C1CC2c3ccccc3CCC2c2ccccc21` (centres undefined), for which the TGI is 41.1 µM in the assay on A498 renal; 15.3 µM with EKVX NSCLC; 50.5 µM in the assay on HCC-2998 colon; more than 100 µM with MCF7 breast; 52.4 µM with NCI-H226 lung; 69.2 µM with NCI-H460 lung. The TGI is more than 100 µM in the assay on TK-10 renal and 50.8 µM in the assay with UO-31 renal.
As for `O=C(/C=C\c1ccc(NCc2ccc(C(=O)O)cc2)cc1)CCl`, the GI50 was 15 µM with A498 renal; 2.62 µM in the assay on CCRF-CEM leukemia; 4.26 µM in the assay with MCF7 breast; 17.1 µM in the assay on NCI-H226 lung; 17 µM with NCI-H460 lung; 13.9 µM in the assay on OVCAR-4 ovarian. Besides, the GI50 in the assay with UO-31 renal was 14.6 µM. Besides, the TGI amounted to 28.3 µM with A498 renal; 7.03 µM in the assay on CCRF-CEM leukemia; 17.7 µM with MCF7 breast; 41.6 µM with NCI-H226 lung; 34.3 µM with NCI-H460 lung; 26.9 µM in the assay with OVCAR-4 ovarian. In addition, the TGI with UO-31 renal was determined as 29.2 µM.
